# Test results from PubChem BioAssay AID743423 (Vanderbilt Specialized Chemistry Center, 2014).
# Calls of active or inactive are those of the source. How the calls were made is not given here.
# Target: Metabotropic glutamate receptor 4 (Homo sapiens) (UniProt Q14833)
# Test: mGlu4 positive allosteric modulator potency, dose response, selectivity assay for mGlu7/mGlu8 PAM project, CHO Gqi5 cells, Fluo-4 calcium (AID 743423)
# Conditions: Fluo-4 calcium fluorescence
# Metabotropic glutamate receptor 4 (Homo sapiens), sequence (Q14833 whole entry, looked up): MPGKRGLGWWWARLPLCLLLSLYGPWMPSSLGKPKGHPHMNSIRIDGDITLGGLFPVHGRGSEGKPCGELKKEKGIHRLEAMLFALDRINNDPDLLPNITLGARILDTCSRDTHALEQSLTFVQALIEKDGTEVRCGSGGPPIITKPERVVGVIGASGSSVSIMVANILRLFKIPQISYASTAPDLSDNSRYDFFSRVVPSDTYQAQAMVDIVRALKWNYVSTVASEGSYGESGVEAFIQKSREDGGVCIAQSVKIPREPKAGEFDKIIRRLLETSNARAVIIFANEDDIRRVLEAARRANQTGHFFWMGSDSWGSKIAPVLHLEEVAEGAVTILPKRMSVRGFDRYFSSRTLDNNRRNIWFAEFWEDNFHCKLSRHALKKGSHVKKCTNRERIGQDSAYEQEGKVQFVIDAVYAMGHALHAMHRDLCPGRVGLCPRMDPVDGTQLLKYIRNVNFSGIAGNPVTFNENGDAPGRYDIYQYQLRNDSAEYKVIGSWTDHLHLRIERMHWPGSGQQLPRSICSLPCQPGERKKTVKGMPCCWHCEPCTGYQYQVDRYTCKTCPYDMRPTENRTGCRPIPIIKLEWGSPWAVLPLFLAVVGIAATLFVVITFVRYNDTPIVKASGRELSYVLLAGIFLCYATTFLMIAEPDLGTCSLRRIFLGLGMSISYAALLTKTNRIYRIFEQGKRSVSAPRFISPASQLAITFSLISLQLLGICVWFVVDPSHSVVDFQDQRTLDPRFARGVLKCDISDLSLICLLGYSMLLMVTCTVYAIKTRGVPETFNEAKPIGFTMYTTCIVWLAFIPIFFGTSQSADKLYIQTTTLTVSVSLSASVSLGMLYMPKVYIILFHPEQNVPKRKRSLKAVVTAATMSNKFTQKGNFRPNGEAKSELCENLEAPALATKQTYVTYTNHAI
row,EC50 [µM],Structure (SMILES)
1,10,COC(=O)c1ccc(-n2c(C)cc(C(=O)CSCc3cccc(C)c3)c2C)cc1
2,10,CCOc1ccc(-n2c(C)cc(C(=O)CSCc3ccc(OC)cc3)c2C)cc1
3,10,COC(=O)c1ccc(-n2c(C)cc(C(=O)COc3ccc(OC(C)=O)cc3)c2C)cc1
4,10,CCOc1ccc(-n2c(C)cc(C(=O)CSc3ccc(OC)cc3)c2C)cc1
5,3.43,COC(=O)c1ccc(-n2c(C)cc(C(=O)CSc3ccc(NC(C)=O)cc3)c2C)cc1
6,3.3,CC(=O)Nc1ccc(SCC(=O)c2cc(C)n(-c3cccc(F)c3)c2C)cc1
7,10,COC(=O)c1ccc(-n2c(C)cc(C(=O)CSc3ccc(N(C)C(C)=O)cc3)c2C)cc1
8,1,COC(=O)c1ccc(-n2c(C)cc(C(=O)CSCc3ccc(OC)cc3)c2C)cc1
9,10,CC(=O)Nc1ccc(SCC(=O)c2cc(C)n(-c3ccc(S(N)(=O)=O)cc3)c2C)cc1

# The next lines start with the compound.
row,Structure (SMILES),EC50 [µM]
1,COc1ccc(SCC(=O)c2cc(C)n(-c3ccc(OC(F)F)cc3)c2C)cc1,10
2,CC(=O)Nc1ccc(SCC(=O)c2cc(C)n(CC3COc4ccccc4O3)c2C)cc1 (stereo not drawn),2.2
3,COC(=O)c1ccc(-n2c(C)cc(C(=O)COc3ccc(NC(C)=O)cc3)c2C)cc1,10
4,CC(=O)Nc1ccc(SCC(=O)c2cc(C)n(CCc3cccs3)c2C)cc1,2.6
5,CC(=O)Nc1ccc(OCC(=O)c2cc(C)n(-c3ccc(OC(F)F)cc3)c2C)cc1,10
6,CC(=O)Nc1ccc(SCC(=O)c2cc(C)n(-c3nc(C)cs3)c2C)cc1,10
7,CCn1c(C)cc(C(=O)CSc2ccc(NC(C)=O)cc2)c1C,10
8,CC(=O)Nc1ccc(SCC(=O)c2cc(C)n(CC3CCCO3)c2C)cc1 (stereo not drawn),10

# Same assay, conditions: Fluo-4 calcium fluorescence, at 30 µM (top of the series)
row,% glutamate max response,Structure (SMILES)
1,inactive,COc1ccc(CSCC(=O)c2cc(C)n(-c3ccc(OC(F)F)cc3)c2C)cc1
2,inactive,CCOc1ccc(-n2c(C)cc(C(=O)CSCc3cccc(C)c3)c2C)cc1
3,inactive,COC(=O)c1ccc(-n2c(C)cc(C(=O)CNc3ccc(C(=O)O)cc3)c2C)cc1
4,22.3,CC(=O)Nc1ccc(SCC(=O)c2cc(C)n(-c3ccccc3F)c2C)cc1

# More lines, now with the values behind:
row,Structure (SMILES),% glutamate max response
1,COC(=O)c1ccc(-n2c(C)cc(C(=O)COc3cccc(N(C)C)c3)c2C)cc1,inactive
2,Cc1ccc(CSCC(=O)c2cc(C)n(-c3ccc(OC(F)F)cc3)c2C)cc1,inactive
